Assay results taken from patent publication US7375222B2, “2,4,6-Triamino-1,3,5-triazine derivative” (Astellas Pharma Inc., priority 2002, dated 2008).

Assays:
ECS-induced amnesia = assay: Electroconvulsive shock (ECS)-induced amnesia, mouse passive avoidance task; type: in vivo
Protocol: Electricity Chorea Shock (ECS)-Induced Learning Disorder (Mouse Passive Evasion Reaction Test) The evaluation was carried out in the following manner with reference to a report (Eur. J. Pharmacology, 321; 273-278, 1997). Animals; Male ddy mice (SLC, five weeks of age at the time of the training) were used. Arranged into 31 or 32 animals per group. A compound to be evaluated was suspended in a solution prepared by dissolving methyl cellulose in physiological saline to a concentration of 0.5% (hereinafter, 0.5% methyl cellulose solution). The administration volume was set to 10 ml per 1 kg body weight. As a placebo of the compound to be evaluated, 10 ml of the 0.5% methyl cellulose solution per 1 kg body weight (hereinafter, vehicle) was administered. (2) Each mouse was put into the light compartment of a passive avoidance task apparatus and allowed to stand for 30 seconds. Thereafter, the Guillotine door was opened. […] (3) A period of time until the mouse crossed a sensor in the dark compartment after opening the Guillotine door (step-through latency) was recorded. […] Effect of the compound on ECS-induced amnesia was evaluated by comparison between a step-through latency of (ECS+vehicle administration) group and a that of (ECS+evaluation compound administration) group. Data were analyzed using two-tailed steel test. […]

BEC 1 potassium channel = target: T1, BEC 1 potassium channel (Homo sapiens, UniProt Q9ULD8); assay: BEC 1 inhibitory activity using released amount of 86Rb ions from BEC 1-expressing cells; type: cell-based; conditions: 86Rb ion release, BEC 1-stably expressing CHO (dhfr-deficient) cell, 100 mM KCl stimulation; read-out: BEC1 IC50
T1 construct: expressed in transfected cells
T1 sequence (Q9ULD8 1-1083): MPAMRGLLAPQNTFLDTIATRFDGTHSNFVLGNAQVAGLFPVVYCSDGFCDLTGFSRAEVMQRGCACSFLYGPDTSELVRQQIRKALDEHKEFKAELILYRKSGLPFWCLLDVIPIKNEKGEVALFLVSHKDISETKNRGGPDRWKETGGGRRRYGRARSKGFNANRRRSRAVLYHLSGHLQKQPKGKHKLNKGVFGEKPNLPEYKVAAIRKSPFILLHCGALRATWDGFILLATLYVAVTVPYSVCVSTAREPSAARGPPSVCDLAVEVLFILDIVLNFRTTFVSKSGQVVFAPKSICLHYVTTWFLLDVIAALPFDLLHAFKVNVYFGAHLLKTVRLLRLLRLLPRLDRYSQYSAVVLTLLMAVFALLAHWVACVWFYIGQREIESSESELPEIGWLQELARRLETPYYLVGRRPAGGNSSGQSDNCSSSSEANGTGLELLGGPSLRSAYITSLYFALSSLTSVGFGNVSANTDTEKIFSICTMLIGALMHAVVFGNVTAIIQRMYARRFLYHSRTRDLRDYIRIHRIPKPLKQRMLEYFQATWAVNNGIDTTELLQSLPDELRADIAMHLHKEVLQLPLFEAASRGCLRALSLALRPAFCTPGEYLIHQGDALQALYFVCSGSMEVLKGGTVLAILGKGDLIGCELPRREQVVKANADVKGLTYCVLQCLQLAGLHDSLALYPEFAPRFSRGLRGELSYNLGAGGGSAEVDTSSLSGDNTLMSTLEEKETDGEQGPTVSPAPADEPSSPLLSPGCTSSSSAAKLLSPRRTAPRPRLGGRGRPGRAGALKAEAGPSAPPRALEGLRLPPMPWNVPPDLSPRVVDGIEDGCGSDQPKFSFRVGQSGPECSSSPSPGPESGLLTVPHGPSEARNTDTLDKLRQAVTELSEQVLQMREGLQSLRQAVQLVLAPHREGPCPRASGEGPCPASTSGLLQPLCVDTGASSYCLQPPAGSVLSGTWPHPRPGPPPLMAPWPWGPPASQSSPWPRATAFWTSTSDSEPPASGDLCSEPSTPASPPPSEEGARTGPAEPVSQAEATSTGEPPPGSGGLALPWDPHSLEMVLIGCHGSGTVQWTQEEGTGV
Protocol: In general, the potassium channel can pass Rb^+ ion similar to K^+ ion, so that the channel activity can be measured using release of a radioisotope ^86Rb^+ as a marker. By incubating cells expressing the novel potassium channel protein together with ^86RbCl (e.g., 18 hr, 37° C.), ^86Rb^+ can be incorporated into the cells. The cells are washed with a low K^+ concentration physiological saline (e.g., 4.5 mM K^+) and then suspended in the same solution. When a high K^+ concentration solution (e.g., 100 mM in final concentration) is added to the cell suspension, membrane potential of the cell is depolarized and the potassium channel therefore is activated. As a result, the intracellular ^86Rb^+ is released into the extracellular part, thus radioactivity of the extracellular solution can be used as a marker of the channel activity. It is possible to screen a compound and a peptide capable of modifying activity of the BEC 1 potassium channel protein, by comparing the radioactivity released into the extracellular part when the high K^+ concentration solution is added in the presence and absence of each drug to be tested.
Method for Measuring BEC 1 Inhibitory Activity of Compounds Using Released Amount of ^86Rb ions as the Index
The channel activity of BEC 1 was measured in accordance with the method described in WO 99/37677, using amount of a radioisotope ^86Rb ion released from a BEC 1-expressing cell as the index. That is, when an ^86Rb ion-incorporated BEC 1-expressing cell was stimulated with 100 mM KCl, the radioactivity released from the cell was used as the channel activity of BEC 1. The ^86Rb ions were incorporated into a BEC 1-stably expressing cell by culturing the cell (3 hours, 37° C.) in the presence of ^86RbCl (0.5 μCi/ml), and the un-incorporated ^86Rb ions were removed by washing three times with HEPES-buffered saline (pH 7.4, 2.5 mM KCl). The cells were incubated with HEPES-buffered saline containing a compound to be tested at room temperature for 15 minutes and then further incubated with 100 mM KCl-containing HEPES-buffered saline (pH 7.4) containing the compound to be tested at room temperature for 5 minutes. The extracellular medium was recovered, and then the remaining cells were lysed with 0.1 N NaOH and recovered.
The Cerenkov radioactivity of the extracellular medium and cell lysate was respectively measured, and their total was used as the total radioactivity. The released amount of ^86Rb ions was expressed by the percentage of extracellular medium radioactivity based on the total radioactivity. The value obtained in the presence of the compound was used as a test value, and the value obtained in the absence of the compound as a control value and the value obtained when not stimulated with 100 mM KCl as a blank value. Inhibitory action of each compound was expressed by % inhibition, namely (control value−test value)×100/(control value−blank value), or by an IC50 value calculated from the % inhibition. As the test results of typical compounds are shown in the following Tables 2 and 3, it was confirmed that said compounds have the BEC 1 potassium channel inhibitory action.
In this connection, as the BEC 1-expressing cell, a BEC 1-stably expressing cell prepared in accordance with the method described in WO 99/37677 using a dihydrofolate reductase (dhfr)-deficient strain of a Chinese hamster ovary cell was used.

Fc1ccc(Nc2nc(NCc3ccnc(F)c3)nc(Nc3ccccc3)n2)cc1 [Example 744]
minimum effective dose (step-through latency) (ECS-induced amnesia; intraperitoneally administered, male ddy mice, test 24 hours after training): 3 mg/kg
effect on ECS-induced amnesia (ECS-induced amnesia; mouse passive avoidance task): shows the improving effect
IC50 (BEC 1 potassium channel): 0.085 µM
